According to ChEMBL document CHEMBL1123078 (J Med Chem, 1985):

Legend:
Staphylococcus aureus = assay: Relative in vitro Antibacterial activity against Staphylococcus aureus CN491 strain; assay type: functional; parameters: unit not given here
Escherichia coli [1] = assay: (§1) Relative in vitro Antibacterial activity against Escherichia coli CN314 strain; assay type: functional; parameters: reference not given here
Proteus vulgaris = assay: Relative in vitro Antibacterial activity against Proteus vulgaris CN329 strain; assay type: functional; parameters: unit not given here
Dihydrofolate reductase [2] = biological target: T1, Dihydrofolate reductase (Rattus norvegicus, UniProt Q920D2); assay: Binding affinity against Dihydrofolate reductase of rat liver; details: read-out: I50
T1 sequence (Q920D2 whole entry): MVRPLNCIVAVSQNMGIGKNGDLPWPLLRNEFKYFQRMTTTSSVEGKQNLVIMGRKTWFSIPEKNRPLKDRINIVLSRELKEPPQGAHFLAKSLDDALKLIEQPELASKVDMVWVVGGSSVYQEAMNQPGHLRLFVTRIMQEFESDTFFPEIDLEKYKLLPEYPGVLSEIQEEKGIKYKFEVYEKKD

Salmonella = assay type: functional, salmonella typhosa; parameters: unit not given here
[3] = biological target: T2, Dihydrofolate reductase (Rattus norvegicus) (UniProt Q920D2); assay: Percent inhibition against Dihydrofolate reductase of rat liver at dose 0.42 mg/kg; assay type: organism-based; parameters: dose 0.42 mg/kg
T2 sequence (whole entry): T1 sequence (Q920D2 whole entry)

Escherichia coli [4] = assay: as §1; assay type: functional; parameters: unit not given here
Dihydrofolate reductase [5] = biological target: T3, Dihydrofolate reductase (Gallus gallus, UniProt P00378); assay: Binding affinity against Dihydrofolate reductase Inhibitor of chicken liver; details: read-out: I50
T3 sequence (P00378 whole entry): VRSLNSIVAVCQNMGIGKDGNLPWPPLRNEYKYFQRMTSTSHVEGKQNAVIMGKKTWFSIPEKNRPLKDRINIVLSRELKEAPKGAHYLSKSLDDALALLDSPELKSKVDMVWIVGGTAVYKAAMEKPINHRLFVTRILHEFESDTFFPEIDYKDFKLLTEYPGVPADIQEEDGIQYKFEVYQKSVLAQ

[6] = biological target: T2, Dihydrofolate reductase (Rattus norvegicus); assay: Percent inhibition against Dihydrofolate reductase of rat liver at dose 0.9 mg/kg; assay type: organism-based; parameters: dose 0.9 mg/kg
[7] = biological target: T2, Dihydrofolate reductase (Rattus norvegicus); assay: Percent inhibition against Dihydrofolate reductase of rat liver at dose 1.0 mg/kg; assay type: organism-based; parameters: dose 1 mg/kg
Dihydrofolate reductase [8] = biological target: T4, Dihydrofolate reductase (Escherichia coli, UniProt P0ABQ4); assay: Relative Binding affinity against Dihydrofolate reductase of Escherichia coli
T4 sequence (P0ABQ4 whole entry): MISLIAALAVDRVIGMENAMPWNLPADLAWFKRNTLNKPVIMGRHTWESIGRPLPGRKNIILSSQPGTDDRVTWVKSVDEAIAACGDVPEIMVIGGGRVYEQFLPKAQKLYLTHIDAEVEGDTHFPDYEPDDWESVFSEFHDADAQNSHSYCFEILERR

Dihydrofolate reductase [9] = biological target: T3, Dihydrofolate reductase; assay: Binding affinity against Dihydrofolate reductase of chicken liver; details: read-out: I50

Row | Structure (SMILES) | MIC (Staphylococcus aureus) | MIC (Escherichia coli [1]) | MIC (Proteus vulgaris) | IC50 (Dihydrofolate reductase [2]) | MIC (Salmonella) | MIC (Escherichia coli [4]) | further results
1 | COc1cc(Cc2cnc(N)nc2N)cc(OCCC(=O)O)c1OC | 20 | 1 | >100 | 74 µM |  |  | 
2 | COC(=O)COc1cc(Cc2cnc(N)nc2N)cc(OC)c1OC | 200 |  | >100 |  | 1000 | 100 | inhibition [3]: 15%
3 | COC(=O)CCCCCOc1c(OC)cc(Cc2cnc(N)nc2N)cc1OC | 6 |  | >100 |  | 300 | 1000 | 
4 | COc1cc(Cc2cnc(N)nc2N)cc(OCCCC(=O)O)c1OC | 20 | 100 | >100 | 9.7 µM |  |  | IC50 (Dihydrofolate reductase [5]): 22 µM
5 | COc1cc(Cc2cnc(N)nc2N)cc(OCCCCC(=O)O)c1OC | 2 | 300 | >100 | 27 µM |  |  | 
6 | COc1cc(Cc2cnc(N)nc2N)cc(OCC(=O)O)c1OC | >200 | 100 | >100 | 70 µM |  |  | 
7 | COc1cc(Cc2cnc(N)nc2N)cc(OC)c1OCC(=O)O | 200 |  | >100 |  | 100 | 300 | 
8 | COC(=O)CCCCCOc1cc(Cc2cnc(N)nc2N)cc(OC)c1OC | 2 |  | >100 | 180 µM | 30 | 100 | 
9 | COC(=O)CCCCCCOc1cc(Cc2cnc(N)nc2N)cc(OC)c1OC | 0.2 |  | >50 | 110 µM | 50 | 100 | 
10 | CCOC(=O)COc1c(OC)cc(Cc2cnc(N)nc2N)cc1OC | 60 |  | >100 |  | 10 | 100 | 
11 | COc1cc(Cc2cnc(N)nc2N)cc(OC)c1OCCCCCC(=O)O | 6 |  | >100 |  | 30 | 30 | 
12 | COC(=O)CCCCOc1cc(Cc2cnc(N)nc2N)cc(OC)c1OC | 2 |  | >100 | 130 µM |  | 1000 | 
13 | CCOC(=O)CCCOc1c(OC)cc(Cc2cnc(N)nc2N)cc1OC |  |  |  |  |  |  | inhibition [6]: 17%
14 | COC(=O)CCCCOc1c(OC)cc(Cc2cnc(N)nc2N)cc1OC |  |  |  |  |  |  | inhibition [7]: 0%
15 | COc1cc(Cc2cnc(N)nc2N)cc(OCCCCCC(=O)O)c1OC | 2 | 300 | >100 | 35 µM |  |  | 
16 | COc1cc(Cc2cnc(N)nc2N)cc(OC)c1OCCCCC(=O)O |  |  |  | 640 µM |  |  | 
17 | COc1cc(Cc2cnc(N)nc2N)cc(OCCCCCCC(=O)O)c1OC | 1 | 100 | >50 | 56 µM |  |  | 
18 | CCOC(=O)CCCOc1cc(Cc2cnc(N)nc2N)cc(OC)c1OC | 10 |  | 50 | 160 µM | 100 | 100 | 
19 | COc1cc(Cc2cnc(N)nc2N)cc(OC)c1OC [TRIMETHOPRIM] | 1 | 1 | 1 |  |  |  | 
20 | COc1cc(Cc2cnc(N)nc2N)cc(OC)c1OCCCC(=O)O |  |  |  | 400 µM |  |  | Ki (Dihydrofolate reductase [8]): 0.0052 µM; IC50 (Dihydrofolate reductase [9]): 350 µM
